Tests used:
GABAA α3β1γ2 = target: T1, GABAA α3β1γ2 (Homo sapiens, UniProt P18505+P34903); test: FLIPR functional receptor assay, GABAA α3β1γ2; format: cell-based; conditions: agonist mode; top test concentration 1 mM
T1 construct: host or cells: HEK 293
Description: (§1) Receptor functional & binding assays
(§2) Functional assays of all GABAA, NMDA (GluN2A–GluN2D) and AMPA (GluA2) receptor subunits were performed by SB Drug Discovery as a part of their CNS discovery panel using FLIPR technology. Briefly, receptor-expressing HEK 293 cell lines were incubated in a red membrane potential dye in HEPES:HBSS pH 7.4 buffer and the fluorescence (λex: 488, λex: 510–570) was monitored over time as the test compounds and/or reference compounds were added to the solution. In agonist assay, only test compounds were added. In positive allosteric modulator assay, cells were preincubated with test compounds and then low concentration (approximately EC20) of an appropriate agonist was added. In antagonist assay, cells were preincubated with test compounds and then high concentration (approximately EC80) of an appropriate agonist was added. For GABAA assays, GABA was used as the agonist, picrotoxin was used as the reference antagonist and allopregnanolone was used as the reference positive allosteric modulator (PAM). For NMDA assays, a mixture of glutamate, glycine and CaCl2 was used as the agonist, MK801 was the reference antagonist and pregnenolone sulfate or GNE 9278 were used as reference PAMs. […] All compounds were tested at 7 concentration points in triplicate and EC50/IC50 was determined where applicable. […]

GABAA α3β3γ2 = target: T2, GABAA α3β3γ2 (Homo sapiens, UniProt P28472+P34903); test: FLIPR functional receptor assay, GABAA α3β3γ2; format: cell-based; conditions: top test concentration 1 mM; for EC50: agonist mode
T2 construct: host or cells: HEK 293
Description: as §1
Functional assays of all GABAA, NMDA (GluN2A–GluN2D) and AMPA (GluA2) receptor subunits were performed by SB Drug Discovery as a part of their CNS discovery panel using FLIPR technology. Briefly, receptor-expressing HEK 293 cell lines were incubated in a red membrane potential dye in HEPES:HBSS pH 7.4 buffer and the fluorescence (λex: 488, λex: 510–570) was monitored over time as the test compounds and/or reference compounds were added to the solution. In agonist assay, only test compounds were added. In positive allosteric modulator assay, cells were preincubated with test compounds and then low concentration (approximately EC20) of an appropriate agonist was added. In antagonist assay, cells were preincubated with test compounds and then high concentration (approximately EC80) of an appropriate agonist was added. For GABAA assays, GABA was used as the agonist, picrotoxin was used as the reference antagonist and allopregnanolone was used as the reference positive allosteric modulator (PAM). For NMDA assays, a mixture of glutamate, glycine and CaCl2 was used as the agonist, MK801 was the reference antagonist and pregnenolone sulfate or GNE 9278 were used as reference PAMs. For AMPA assays, glutamate was used as the agonist, CNQX was the reference antagonist and cyclothiazide was used as the reference PAM. All compounds were tested at 7 concentration points in triplicate and EC50/IC50 was determined where applicable. […]

GABAA α2β3γ2 = target: T3, GABAA α2β3γ2 (Homo sapiens, UniProt P28472+P47869); test: FLIPR functional receptor assay, GABAA α2β3γ2; format: cell-based; conditions: agonist mode; top test concentration 1 mM
T3 construct: host or cells: HEK 293
Description: as §1, §2

C57Bl/6 mice = format: in vivo; conditions: for Distance moved in the novel cage: single dose 100, 300, or 900 mg/kg IP, dose- and time-dependent, P < 0.001
Description: See Supplementary Methods for details.
The lysate was centrifuged (2,500g for 15 min at 4 °C) and the supernatant was assayed using Pierce BCA Protein Assay Kit (23225) using BioTek Epoch plate spectrophotometer by recording absorbance at 562 nm.
Two or three 10 μL aliquots of the homogenate were transferred to a 96 well plate and extracted with 190 μL of 60% acetonitrile in water containing 10 μM GABA-d6 or 10 μM Glu-d5 and Gln-d5 as internal standards. 40 μL aliquots of the extracts were then diluted with 120 μL of acetonitrile and prepared for LC-MS/MS analysis. Brain and serum half-lives were calculated using the ‘PKNCA’ package for R. Endogenous levels of Glu, Gln and GABA were determined in the brains of mice used in the pharmacokinetics experiment. MRM transitions specific for Glu, Gln and GABA were monitored simultaneously.
In vivo animal studies; Maximum Tolerated Dose (MTD) and behavioral studies […]
000664) were group-housed in a Stanford University animal facility with 12:12 hour light/dark cycle ([…]) and had free access to water and food. All behavioral tests were conducted during the animal dark-cycle. […]
Novel Cage Observation: The mouse was dosed and immediately placed in the center of a clean, Innovive disposable rat cage with bedding (dimensions: 17"L x 13.4"W x 7.8"H) and allowed to move freely while being tracked automatically. Mice were monitored with Ethovision XT tracking software for the distance moved and average velocity during the 60-minute trial. […]
Hot plate test: Hot Plate apparatus (IITC Inc. Model 39) was set to 55°C± 0.2. […] Latency time was recorded when hind paw licking or jumping off first occurred.
SHIRPA: The SHIRPA preliminary screen designed by Rogers et al. (1997) was modified and used to assess the general health and behavioral traits of the mice for the initial five minutes after drug administration. […] The test began by placing the mouse in the clear plastic viewing jar for 60 seconds, and the behavioral parameters were monitored and recorded. […]
Behavioral parameters monitored were according to Portmann et al. (2014). […]

NMDA nonspecific = test: Nonspecific NMDA binding assay; conditions: 100 μM, triplicate; rat
Description: Nonspecific AMPA, kainate and NMDA binding assays were performed by Eurofins Discovery
(Cerep) using rat cerebral cortex membranes and radiolabeled [3H]AMPA, [3H]kainic acid and
[3H]CGP 39653, respectively. […]

T2 sequence (P34903 29-492): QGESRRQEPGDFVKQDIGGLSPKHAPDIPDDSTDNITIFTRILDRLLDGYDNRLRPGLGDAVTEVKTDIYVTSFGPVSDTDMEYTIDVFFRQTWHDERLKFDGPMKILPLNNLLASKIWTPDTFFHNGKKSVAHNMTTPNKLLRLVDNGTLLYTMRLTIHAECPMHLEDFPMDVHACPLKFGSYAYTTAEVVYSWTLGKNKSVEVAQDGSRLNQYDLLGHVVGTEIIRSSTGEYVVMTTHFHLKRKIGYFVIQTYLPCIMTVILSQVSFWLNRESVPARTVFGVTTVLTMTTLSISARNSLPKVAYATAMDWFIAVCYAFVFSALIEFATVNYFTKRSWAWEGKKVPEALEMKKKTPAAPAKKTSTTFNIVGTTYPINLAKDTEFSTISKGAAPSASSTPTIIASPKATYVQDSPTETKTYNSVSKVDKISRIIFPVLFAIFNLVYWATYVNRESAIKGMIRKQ
T2 sequence (P28472 26-473): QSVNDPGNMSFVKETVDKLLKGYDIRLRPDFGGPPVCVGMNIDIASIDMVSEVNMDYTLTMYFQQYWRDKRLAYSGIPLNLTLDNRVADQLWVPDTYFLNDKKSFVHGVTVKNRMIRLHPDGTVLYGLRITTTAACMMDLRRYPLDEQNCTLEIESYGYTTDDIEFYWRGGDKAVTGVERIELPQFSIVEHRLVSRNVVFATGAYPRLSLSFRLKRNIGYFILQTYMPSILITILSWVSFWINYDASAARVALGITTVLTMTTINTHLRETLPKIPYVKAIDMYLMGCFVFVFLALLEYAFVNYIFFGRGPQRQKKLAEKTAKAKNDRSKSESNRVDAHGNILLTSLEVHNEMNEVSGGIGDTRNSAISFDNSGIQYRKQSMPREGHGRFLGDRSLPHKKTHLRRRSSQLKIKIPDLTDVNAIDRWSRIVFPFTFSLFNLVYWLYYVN
T2 sequence (P18507 40-475 partner): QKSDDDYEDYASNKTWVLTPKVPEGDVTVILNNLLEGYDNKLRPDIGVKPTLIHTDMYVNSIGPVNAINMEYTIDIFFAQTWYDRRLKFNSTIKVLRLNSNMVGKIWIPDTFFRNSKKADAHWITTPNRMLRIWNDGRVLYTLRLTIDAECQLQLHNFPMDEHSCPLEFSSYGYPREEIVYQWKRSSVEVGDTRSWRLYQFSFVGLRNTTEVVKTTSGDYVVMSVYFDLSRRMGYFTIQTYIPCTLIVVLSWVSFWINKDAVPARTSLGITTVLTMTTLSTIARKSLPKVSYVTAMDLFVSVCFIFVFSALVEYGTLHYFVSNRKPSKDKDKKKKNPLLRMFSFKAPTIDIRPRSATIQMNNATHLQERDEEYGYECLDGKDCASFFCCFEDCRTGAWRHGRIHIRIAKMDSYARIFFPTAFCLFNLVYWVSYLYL
T1 sequence (P34903 29-492): as the sequence (P34903 29-492) above
T1 sequence (P18505 26-474): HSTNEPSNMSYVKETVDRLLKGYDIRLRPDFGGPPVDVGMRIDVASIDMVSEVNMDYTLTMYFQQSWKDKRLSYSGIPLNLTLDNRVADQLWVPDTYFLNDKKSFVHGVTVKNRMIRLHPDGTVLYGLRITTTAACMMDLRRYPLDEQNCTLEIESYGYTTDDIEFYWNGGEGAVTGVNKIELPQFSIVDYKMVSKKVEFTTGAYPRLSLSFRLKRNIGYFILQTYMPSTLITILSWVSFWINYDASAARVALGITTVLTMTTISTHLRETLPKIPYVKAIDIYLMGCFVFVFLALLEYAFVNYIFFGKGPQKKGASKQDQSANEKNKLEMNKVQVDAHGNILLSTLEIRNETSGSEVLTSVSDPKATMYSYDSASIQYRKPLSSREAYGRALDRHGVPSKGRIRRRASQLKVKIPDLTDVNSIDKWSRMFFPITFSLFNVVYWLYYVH
T1 sequence (P18507 40-475 partner): as the sequence (P18507 40-475 partner) above
T3 sequence (P47869 29-451): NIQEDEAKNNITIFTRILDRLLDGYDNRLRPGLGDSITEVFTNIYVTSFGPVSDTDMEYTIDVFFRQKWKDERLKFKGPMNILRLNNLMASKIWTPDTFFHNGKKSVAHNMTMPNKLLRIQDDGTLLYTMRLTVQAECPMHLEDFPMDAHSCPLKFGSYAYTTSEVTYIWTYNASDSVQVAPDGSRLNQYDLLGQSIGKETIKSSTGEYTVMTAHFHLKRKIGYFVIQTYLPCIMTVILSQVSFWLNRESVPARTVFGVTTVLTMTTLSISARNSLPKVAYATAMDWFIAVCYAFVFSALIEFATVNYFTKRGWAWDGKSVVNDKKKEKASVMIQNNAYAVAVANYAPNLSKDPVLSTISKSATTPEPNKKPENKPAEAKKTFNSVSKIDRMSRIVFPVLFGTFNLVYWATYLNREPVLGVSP
T3 sequence (P28472 26-473): as the sequence (P28472 26-473) above
T3 sequence (P18507 40-475 partner): as the sequence (P18507 40-475 partner) above

| SMILES | EC50 (GABAA α3β1γ2) | EC50 (GABAA α3β3γ2) | EC50 (GABAA α2β3γ2) | Survival after single dose (C57Bl/6 mice; male, C57Bl/6, mouse, in vivo) | Distance moved in the novel cage (C57Bl/6 mice) | % of radioligand binding inhibition, NMDA nonspec (NMDA nonspecific) | IC50 (GABAA α3β3γ2; antagonist mode) |
| --- | --- | --- | --- | --- | --- | --- | --- |
| C[C@@](N)(CCC(=O)O)C(=O)O [(R)-2MeGlu, (R)-2-methylglutamic acid] | 742 µM | 959 µM | 622 µM | Only one mouse died 10 days after 900 mg/kg | significantly decreased | 8% |  |
| C[C@](N)(CCC(=O)O)C(=O)O [(S)-2MeGlu, (S)-2-methylglutamic acid] | 782 µM | 725 µM | 342 µM |  | significantly decreased | 3% | 978 µM |
